Measurements published in publication PMC4492579, “Potent and Selective Triazole-Based Inhibitors of the Hypoxia-Inducible Factor Prolyl-Hydroxylases with Activity in the Murine Brain” (PLoS ONE, 2015).
Where a name gives a salt, the structure may show the parent alone. Read-outs that look alike come from different tables or passages of the source.

Legend:
[1] = test system: HIF1α and HIF2α; assay: HIFα induction in tissues of treated mice (immunoblotting); format: in vivo, C57BL/6 mice; settings: i.p.; for HIF1α and HIF2α induction in liver, kidney and heart / HIF1α and HIF2α induction in the brain: equimolar: IOX2 37.7 mg/kg, IOX4 35 mg/kg, DMOG 75 mg/kg
Experimental: All animal experiments were performed on male C57BL/6 mice aged 3 months (purchased from Harlan Laboratories, Blackthorn) housed in specific pathogen free conditions with free access to water and standard chow. Mice were injected intraperitonially with the inhibitor (dissolved in Hanks’ buffered saline solution, pH 7.0, 5% DMSO final) or vehicle at the indicated doses for the indicated time as previously described. Tissues from treated mice were harvested and ‘snap frozen’ with liquid nitrogen before being stored at -80°C. For immunoblotting, a portion of the tissues was removed, weighed and homogenised in urea/SDS buffer before being analysed by immunoblotting with HIF1α rabbit polyclonal antibody (10006421, Cayman Chemical, 1:1000) or HIF2α rabbit polyclonal antibody (PM9 [27], 1:1000). For RNA extraction, tissues were ‘snap frozen’ in liquid nitrogen immediately after harvesting, then ground to a fine powder using a cryogenic tissue pulveriser, keeping samples on dry ice at all times and processed for total RNA extraction using the mirVana miRNA isolation kit (AM1560, Life Technologies) according to the manufacturer’s protocol for processing frozen tissues. All animal procedures were compliant with the UK Home Office Animals (Scientific Procedures) Act 1986 and Local Ethical Review Procedures (University of Oxford Medical Sciences Division Ethical Review Committee).
The inhibitors or vehicle controls were injected intraperitonially into wild type C57BL/6 mice and sacrificed after the indicated treatment time before harvesting their tissues to be analysed for HIFα levels by immunoblotting.

[2] = test system: U2OS; assay: Quantitative HIF1α MSD immunoassay, U2OS; format: cell-based; settings: Homo sapiens, read-out: HIF1α EC50
Experimental: (§1) Cells were seeded into 96-well cell culture plates (150 μl culture volume) at approximately 60–70% confluency at least 12 h prior to the compound treatment. Half of the culture medium (75 μl/well) were removed and 75 μl/well of medium containing the desired concentrations of compounds were added into cells for 5 h. The cell medium was then removed and the cells were washed once with phosphate buffered saline (PBS), followed by the addition of lysis buffer (20 mM Tris pH 7.4, 450 mM NaCl, 1 mM EDTA, 1 mM EGTA, 0.5% Triton X-100, 1x complete protease inhibitor cocktail and 100 μM DFO). Plates were then left at 4°C with shaking. […] Plates were washed thrice with Tris Wash Buffer, added with 150 μl/well 2X Read Buffer (R92TC, Meso Scale Discovery) before being read with an MSD Sector S600 plate reader (Meso Scale Discovery). Signals generated were normalized to “lysis buffer-only” controls.
(§2) To quantify the cellular efficiency of PHD inhibition, we developed an electrochemiluminescence-based assay for the quantification of HIF1α levels using the Meso Scale Discovery (MSD, http://www.mesoscale.com) technology (HIF1α MSD assay), which is based on the capture and detection of HIF1α protein using two specific HIF1α antibodies. […]

[3] = test system: Hep3B; assay: Quantitative HIF1α MSD immunoassay, Hep3B; format: cell-based; settings: Homo sapiens, read-out: HIF1α EC50
Experimental: as §1, §2

[4] = biological target: T1, FBXL11 (KDM2A) (Homo sapiens, UniProt Q9Y2K7); assay: KDM AlphaScreen assay, FBXL11
T1 sequence (Q9Y2K7 1-1162): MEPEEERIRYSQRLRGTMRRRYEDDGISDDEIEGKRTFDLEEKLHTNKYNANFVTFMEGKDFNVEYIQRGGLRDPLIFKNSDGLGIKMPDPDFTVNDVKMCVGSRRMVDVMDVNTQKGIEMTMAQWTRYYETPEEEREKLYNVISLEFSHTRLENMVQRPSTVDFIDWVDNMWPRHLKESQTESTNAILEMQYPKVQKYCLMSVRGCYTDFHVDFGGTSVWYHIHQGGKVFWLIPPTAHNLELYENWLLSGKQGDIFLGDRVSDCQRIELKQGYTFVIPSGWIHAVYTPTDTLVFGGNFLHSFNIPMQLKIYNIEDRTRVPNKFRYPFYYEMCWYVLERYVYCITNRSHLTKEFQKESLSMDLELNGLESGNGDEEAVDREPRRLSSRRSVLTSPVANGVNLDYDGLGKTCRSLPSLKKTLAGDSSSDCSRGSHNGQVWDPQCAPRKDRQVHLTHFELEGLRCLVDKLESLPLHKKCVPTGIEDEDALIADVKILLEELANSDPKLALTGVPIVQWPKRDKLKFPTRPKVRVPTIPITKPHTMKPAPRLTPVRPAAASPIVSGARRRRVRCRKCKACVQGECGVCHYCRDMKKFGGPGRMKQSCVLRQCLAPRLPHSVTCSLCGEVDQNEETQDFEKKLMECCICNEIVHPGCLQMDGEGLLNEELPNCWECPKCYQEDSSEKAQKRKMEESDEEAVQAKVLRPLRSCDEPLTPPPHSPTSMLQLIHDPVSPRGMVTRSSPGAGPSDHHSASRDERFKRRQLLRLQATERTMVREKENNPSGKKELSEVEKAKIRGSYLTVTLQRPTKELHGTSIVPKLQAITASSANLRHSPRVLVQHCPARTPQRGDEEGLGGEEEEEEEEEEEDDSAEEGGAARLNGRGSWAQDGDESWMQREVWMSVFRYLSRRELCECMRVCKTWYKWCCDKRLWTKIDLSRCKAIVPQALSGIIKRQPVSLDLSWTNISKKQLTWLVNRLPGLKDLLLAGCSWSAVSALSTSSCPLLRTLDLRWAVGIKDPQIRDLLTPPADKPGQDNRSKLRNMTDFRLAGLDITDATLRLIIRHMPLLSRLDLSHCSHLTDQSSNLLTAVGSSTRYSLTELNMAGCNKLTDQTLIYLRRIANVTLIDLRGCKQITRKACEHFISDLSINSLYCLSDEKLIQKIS
Experimental: Inhibition assays for PHD2 (AlphaScreen) [9], the KDMs (AlphaScreen) [17], BBOX [18] and FTO [19] were carried out as previously described. […] IC50 values were calculated using nonlinear regression with normalized dose-response fit using GraphPad Prism 5.

Row | Structure (SMILES) | HIF1α and HIF2α induction in liver, kidney and heart ([1]; 1 h) | HIF1α and HIF2α induction in the brain ([1]; 1 h) | HIF1α induction in mouse liver ([1]; IOX2 37.7 mg/kg, IOX3 30 mg/kg (equivalent molar dose), 1 h and […]) | EC50 ([2]; 5 h treatment, MSD assay) [µM] | EC50 ([3]; 5 h treatment, MSD assay) [µM] | HIF1α and HIF2α induction in the liver and brain, dose dependence ([1]; 1 h, 17.5 to 70 mg/kg) | IC50 [4] [µM] | EC50 ([2]; 5 h) [µM] | EC50 ([3]; 5 h) [µM]
1 | O=C(O)CNC(=O)c1c(O)c2ccccc2n(Cc2ccccc2)c1=O [IOX2] | strongest induction | not | induced in mouse liver after 1 h | 49.5 | 86 | – | – | – | –
2 | CC(C)(C)OC(=O)c1ccc(-n2[nH]cc(-n3ccnn3)c2=O)nc1 [IOX4, t-Butyl 6-(5-oxo-4-(1H-1,2,3-triazol-1-yl)-2,5-dihydro-1H-pyrazol-1-yl)nicotinate] | induction of HIF1α and HIF2α | induced | – | – | – | Dose-dependent induction | 20 | 5.6 | 11.1
3 | O=C(O)c1ccc(-n2[nH]cc(-n3ccnn3)c2=O)nc1 [compound 1, 6-(5-oxo-4-(1H-1,2,3-triazol-1-yl)-2,5-dihydro-1H-pyrazol-1-yl)pyridine-3-carbocylic acid hydrochloride] | – | – | – | – | – | – | 20 | – | –
